Legend:
[1] = target: PHD-2/Egln1 (Homo sapiens, UniProt Q9GZT9); test: DARTS with Western blot, HeLa lysate; assay type: binding; conditions: TNC buffer pH 8.0, 10 mM CaCl2; room temperature
[2] = target: ATP5B (ATP synthase subunit beta) (Homo sapiens, UniProt P06576); test: DARTS with LC-MS/MS; assay type: binding; conditions: TNC buffer pH 8.0, 10 mM CaCl2; room temperature
Chain of ATP5B (ATP synthase subunit beta) (P06576 48-529): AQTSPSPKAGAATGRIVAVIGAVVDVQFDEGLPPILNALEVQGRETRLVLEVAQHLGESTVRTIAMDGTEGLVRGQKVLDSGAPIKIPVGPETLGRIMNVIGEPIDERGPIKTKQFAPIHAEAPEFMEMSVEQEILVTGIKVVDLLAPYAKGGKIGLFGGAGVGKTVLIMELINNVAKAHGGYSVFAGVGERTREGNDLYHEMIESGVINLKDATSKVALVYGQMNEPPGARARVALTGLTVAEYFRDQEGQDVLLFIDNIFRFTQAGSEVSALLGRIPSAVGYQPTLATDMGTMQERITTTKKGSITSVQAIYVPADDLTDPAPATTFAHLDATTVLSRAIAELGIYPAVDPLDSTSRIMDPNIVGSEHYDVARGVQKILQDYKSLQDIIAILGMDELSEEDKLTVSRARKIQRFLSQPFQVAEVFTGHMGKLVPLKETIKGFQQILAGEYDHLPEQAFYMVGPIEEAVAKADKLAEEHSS

Chain of PHD-2/Egln1 (Q9GZT9 2-426): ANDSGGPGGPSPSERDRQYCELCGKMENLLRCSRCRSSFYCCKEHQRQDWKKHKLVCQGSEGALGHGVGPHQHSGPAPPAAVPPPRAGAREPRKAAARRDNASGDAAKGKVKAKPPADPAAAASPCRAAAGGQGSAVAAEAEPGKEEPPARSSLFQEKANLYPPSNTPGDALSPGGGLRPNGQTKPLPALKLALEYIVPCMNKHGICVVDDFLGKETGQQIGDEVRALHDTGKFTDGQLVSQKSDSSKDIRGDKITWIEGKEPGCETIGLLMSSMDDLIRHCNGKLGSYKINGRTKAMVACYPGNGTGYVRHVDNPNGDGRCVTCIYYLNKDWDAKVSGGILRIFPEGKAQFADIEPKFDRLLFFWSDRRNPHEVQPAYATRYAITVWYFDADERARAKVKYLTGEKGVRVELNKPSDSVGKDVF

## O=C(O)CCC(=O)C(=O)O [α-KG]
[1]
  DARTS with Western blot, HeLa lysate: Binding between α-KG and PHD-2/Egln1
[2]
  DARTS with LC-MS/MS (Jurkat) and Western blot (HeLa): DARTS confirms α-KG binding specifically to ATP5B

Reference: article PMC4263271 (Nature, 2014)
